In patent publication US20250213547A1, “METHODS OF TREATING NEUROLOGICAL DISEASES” (priority 2022, published 2025):

Columns and labels:
clinical [1] = settings: human, in vivo, 300 mg
Description: This study included nine patients in a three-sequence regimen altering fed state and formulation.
Aside from differences in a few selected time points, PK data collection procedures and analyses are similar to example 2.

clinical [2] = assay type: in vivo; settings: human; for Cmax: mean
Description: The first-in-human clinical trial administered a single-rising dose and included 48 healthy men and women aged 19-55 with a body mass index between 18 kg/m2 and 30 kg/m2. […] Examples 2-5 herein further describes the trial protocol and the results, including data on the bioavailability of solution versus tablet (example 3), fed versus fasting patients (example 4), and PD data (example 5). The data obtained from this trial informed on the safe dosage range for future trials, and was included in the first-step of the modeling analysis described in example 12.
The study enrolled 48 subjects in the single rising dose study. Subjects were sorted into six cohorts and randomly assigned to treatment or placebo groups.
A prior study of soticlestat dosing in dogs guided the safety margin of minimal and maximal single dose selection for human subjects. An initial dosage of 10 mg provided a 44-fold safety margin relative to the maximum safe dosage in dogs. […] Each dose trial contained two placebo subjects. Ascending doses were tested in 2 sentinel subjects at a time to determine safety and tolerability before including the full cohort.
The analytes and internal standards were extracted by solid phase extraction or by dilution. […] Multiple analyses of pooled samples (n=6) verified intra- and inter-assay accuracy with an acceptance criteria of within 15% (CV≤15%) or 20% (CV≤20%) for the LLOQ. PK parameters were analyzed from plasma and urine concentration time data using standard non-compartmental analysis methods with Phoenix WinNonlin™ version 6.3 (Certara, Princeton, N.J. USA). All statistical analyses were performed using SAS software version 9.2 (SAS Institute Inc., Cary, N.C. USA).

[3] = Adult DEE patients (Part A/Part B): safety and tolerability; assay type: in vivo, human
Description: The third clinical trial was a randomized, double-blind, placebo controlled study. […] After the completion of Part A, 16 patients continued in Part B with open-label treatment for 60 additional days. Patients were included in the trial if they were 18-65 years of age with an established diagnosis of DEE, such as Lennox-Gastaut syndrome, Dravet syndrome, or tuberous sclerosis complex. For enrollment, patients were required to have had at least two bilateral motor seizures per month in the three months prior. In addition, during the 4-week baseline period prior to dosing, patients were required to have incurred at least one bilateral motor seizure. Exclusion criteria included abnormal ECG, degenerative eye disease, or admission to emergency care for treatment of status epilepticus that required mechanical ventilation.
Only patients having at least one bilateral seizure during the baseline study were eligible to continue. […] The range of seizure types included tonic-clonic, drop seizures, tonic, atonic, bilateral clonic, myoclonic-atonic, myotonic-tonic-clonic, and focal seizures. Aside from seizure history, subjects were also enrolled based on an establish diagnosis of DEE, such as Lennox-Gastaut syndrome (LGS) and Dravet syndrome (DS), tuberous sclerosis complex, and a history of special education or an overall intellectual quotient of <70. […] Subjects could continue taking 1-4 anti-seizure medicines (ASM), with the exception of stiripentol, during the study. […]
The safety and tolerability assessments included blood pressure, heart rate, respiratory rate, temperature, treatment-emergent adverse effects, clinical laboratory tests, electrocardiogram data, neurological and ophthalmic examination, and the Columbia-suicide severity rating scale (C-SSRS).
Patients were dosed 100 mg, 200 mg, or 300 mg BID. Dosage (mg BID) in each interval reflects the final dose during that interval. Fields showing 0 mg in days 1-10, 11-20, and 21-30 intervals are patients who were assigned to the placebo group in Part A of the study.

clinical [4] = settings: human, in vivo; for AUC: AUC24 / mean steady-state area under the curve
Protocol: Soticlestat was administered in tablet formulation during fasting condition. […] Blood samples were obtained before the first morning dose, and at 1, 3, and 5 hours post-dose. On days 11 and 21, blood samples were taken before the morning dose and 1 hour post-dose. In Part B, patients were administered 200 mg BID for days 31-40, followed by 300 mg BID for days 41-85. On days 31, 41, and 85, blood samples were taken before the morning dose. […] The AUC24 for doses 100, 200, and 300 mg BID were 562.5, 1437, and 2188 ng×h/mL, respectively.
Blood samples were collected before and after the morning dose on days 1, 11, and 21, and before and after the morning dose on days 31, 41, and 85.

[5] = both sexes, in vivo, po, 200 mg
[6] = both sexes, in vivo, po, 600 mg
[7] = both sexes, in vivo, po, 900 mg
[8] = both sexes, in vivo, po, 1350 mg

In the case of `O=C(c1cccnc1-c1ccncc1)N1CCC(O)(Cc2ccccc2)CC1` [soticlestat], the “AUC∞ lower, tablet fed than fasting” value (clinical [1]) is reported as 10.6%, the Tmax (clinical [1]) is reported as 31.8 min and the “mean Cmax decrease, tablet fed compared to fasted” value (clinical [1]) is reported as 59.7%. The “AUC∞ lower with tablet compared with oral solution” value (clinical [1]; po) was 15.8%, the “Cmax lower with tablet compared with oral solution” value (clinical [1]; po) was 36.9% and the Tmax (clinical [1]; po) was 21 min. It also gave a CL renal (clinical [2]; both sexes, in vivo) of 3.83 to 10.3 mL/min, a Tmax (clinical [2]; both sexes, in vivo, po) of 15 to 31.2 min and a half-life (clinical [2]; both sexes, in vivo, po) of 49.2 to 430 min. The Tmax (clinical [2]; both sexes, in vivo, po, 15 mg) was 15 min, the Cmax (clinical [2]; both sexes, in vivo, po, 15 mg) was 43.5 ng/mL and the AUC(0-inf) (clinical [2]; both sexes, in vivo, po, 50 mg) was 172 ng·h/mL. It also gave an AUC(0-t) (clinical [2]; both sexes, in vivo, po, 50 mg) of 169 ng·h/mL, a Tmax (clinical [2]; both sexes, in vivo, po, 50 mg) of 15 min and a Vd/F (clinical [2]; both sexes, in vivo, po, 50 mg) of 1500 L. The Cmax (clinical [2]; both sexes, in vivo, po, 50 mg) was 210 ng/mL, the AUC(0-inf) (clinical [2]; [5]) was 621 ng·h/mL and the AUC(0-t) (clinical [2]; [5]) was 563 ng·h/mL. The Tmax (clinical [2]; [5]) was 15 min, the Vd/F (clinical [2]; [5]) was 2240 L and the Cmax (clinical [2]; [5]) was 571 ng/mL. The Tmax (clinical [2]; [6]) was 31.2 min, the Vd/F (clinical [2]; [6]) was 993 L and the Cmax (clinical [2]; [6]) was 4550 ng/mL. It also gave an AUC(0-inf) (clinical [2]; [7]) of 7660 ng·h/mL, an AUC(0-t) (clinical [2]; [7]) of 7620 ng·h/mL and a Vd/F (clinical [2]; [7]) of 1230 L. It also gave a Cmax (clinical [2]; [7]) of 5080 ng/mL, an AUC(0-inf) (clinical [2]; [8]) of 13500 ng·h/mL and an AUC(0-t) (clinical [2]; [8]) of 13500 ng·h/mL. It also gave a Vd/F (clinical [2]; [8]) of 852 L, a Cmax (clinical [2]; [8]) of 7950 ng/mL and a Vd/F (clinical [2]; both sexes, plasma, single oral solution dose 15 mg, read-out: Vz/F, mean) of 732 L. The “time of second smaller plasma peak post-dose” value (clinical [2]; both, in vivo) was “approximately 10 hours”, the “t1/2z, mean” value (clinical [2]; both, in vivo, po, 15 mg) was 49.2 min and the “t1/2z, mean” value (clinical [2]; both, in vivo, po, 50 mg) was 179 min. The “t1/2z, mean” value (clinical [2]; both, in vivo, po, 200 mg) was 263 min, the “AUC(0-t), mean” value (clinical [2]; both, in vivo, po, 600 mg) was 5790 ng·h/mL and the “AUC∞, mean” value (clinical [2]; both, in vivo, po, 600 mg) was 5810 ng·h/mL. The “t1/2z, mean” value (clinical [2]; both, in vivo, po, 600 mg) was 286 min, the “Tmax, median” value (clinical [2]; both, in vivo, po, 900 mg) was 30 min and the “t1/2z, mean” value (clinical [2]; both, in vivo, po, 900 mg) was 430 min. The “Cmax, mean” value (clinical [2]; both, in vivo, po, 1350 mg) was 7953 ng/mL, the “t1/2z, mean” value (clinical [2]; both, in vivo, po, 1350 mg) was 319 min and the “dose-proportionality slope, AUC(0-t) (log-log)” value (clinical [2]; in vivo) was 1.38 (1.28, 1.48). For the same molecule, the “dose-proportionality slope, AUC∞ (log-log)” value (clinical [2]; in vivo) was 1.42 (1.31, 1.53), the “dose-proportionality slope, Cmax (log-log)” value (clinical [2]; in vivo) was 1.22 (1.11, 1.32) and the “CL/F, mean” value (clinical [2]; in vivo, po, 15 mg) was 689 L/h. The “CL/F, mean” value (clinical [2]; in vivo, po, 50 mg) was 549 L/h, the “CL/F, mean” value (clinical [2]; in vivo, po, 200 mg) was 355 L/h and the “CL/F, mean” value (clinical [2]; in vivo, po, 600 mg) was 145 L/h. The “CL/F, mean” value (clinical [2]; in vivo, po, 900 mg) was 124 L/h, the “CL/F, mean” value (clinical [2]; in vivo, po, 1350 mg) was 112 L/h and the “Upper respiratory tract infection, n participants” value ([3]; Part A, soticlestat (n = 14)) was 2 n. The “Upper respiratory tract infection, n participants” value ([3]; Part B open-label, all (n = 16)) was 1 n, the “Dysarthria, n participants” value ([3]; human, in vivo, 30 days) was 3 n and the “Fatigue, n participants” value ([3]; human, in vivo, 30 days) was 2 n. The “Headache, n participants” value ([3]; human, in vivo, 30 days) was 2 n, the “Lethargy, n participants” value ([3]; human, in vivo, 30 days) was 2 n and the TEAE incidence ([3]; human, in vivo, 30 days) was 71.4%. For the same molecule, the deaths ([3]; soticlestat arm) was “no deaths”, the clearance (clinical [4]; 100 mg) was 4320 mL/min and the AUC (clinical [4]; 100 mg) was 562 ng·h/mL. For the same molecule, the Cmax (clinical [4]; 100 mg, Cmax steady state, mean) was 270 ng/mL, the clearance (clinical [4]; 200 mg) was 3260 mL/min and the AUC (clinical [4]; 200 mg) was 1440 ng·h/mL. The Cmax (clinical [4]; 200 mg, Cmax steady state, mean) was 640 ng/mL, the clearance (clinical [4]; 300 mg) was 3170 mL/min and the AUC (clinical [4]; 300 mg) was 2190 ng·h/mL. The Cmax (clinical [4]; 300 mg, Cmax steady state, mean) was 975 ng/mL and the Cmax (clinical [4]; Study TAK-935-2001, 200 mg BID, Mean, read-out: Cmax, ss) was 1270 ng/mL.
